Data from the supplement of paper PMC10307832.

Compound: CC[C@@H]1C(=O)N(C)c2cnc(Nc3ccc(C(=O)NC4CCN(C)CC4)cc3OC)nc2N1C1CCCC1 [BI-2536] + CC1(C)CCC(c2ccc(Cl)cc2)=C(CN2CCN(c3ccc(C(=O)NS(=O)(=O)c4ccc(N[C@H](CCN5CCOCC5)CSc5ccccc5)c(S(=O)(=O)C(F)(F)F)c4)cc3)CC2)C1 [Navitoclax] (partner 0.5 µM)
Test: relative viability (nuclei count vs DMSO), 5 days (fraction); higher = more cells survive
Conditions: first compound 0.01 µM
Method in brief: (§1)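 For relative viability, nuclei counts in treated wells were divided by those in vehicle wells. Lung cancer cell lines had been pin-tool dosed in 1536-well plates the day after seeding and cultured for 5 days, then fixed and stained in one step (final 0.05% Triton X-100, 1% formaldehyde, 1 ug/ml Hoechst) and imaged at 4×. Doses were one drug alone or a fixed anchor-drug dose plus five library-drug doses (not always all listed) in √10 steps, and values are duplicate-plate medians.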

NCI-H1355 was tested. Which relative viability did it give?
Its relative viability is 0.885.

With NCI-H3122 as the cell line, how does the relative viability read?
Its relative viability is 1.

With NCI-H1437 as the cell line, how does the relative viability read?
Its relative viability is 1.08.

How did the relative viability turn out when NCI-H1755 was run?
The relative viability was 1.

Which relative viability does the source give for NCI-H2023 here?
Its relative viability is 0.984.

For HCC-15, which relative viability is on record?
The relative viability was 0.709.

For NCI-H1793, which relative viability is on record?
Its relative viability is 0.438.

Which relative viability does the source give for PC-14 here?
The relative viability was 1.05.

For EKVX, which relative viability is on record?
Its relative viability is 0.786.

For LC-2-ad, which relative viability is on record?
The relative viability was 0.412.

How did the relative viability turn out when NCI-H1944 was run?
Its relative viability is 1.05.

NCI-H1975 was tested. Which relative viability did it give?
Its relative viability is 1.12.

RERF-LC-KJ was tested. Which relative viability did it give?
Its relative viability is 0.861.

With PC-3 [JPC-3] as the cell line, how does the relative viability read?
Its relative viability is 0.849.

Same assay, conditions: first compound 0.03162 µM

NCI-H1355 was tested. Which relative viability did it give?
Its relative viability is 1.08.

Which relative viability does the source give for NCI-H3122 here?
Its relative viability is 0.991.

For NCI-H1437, which relative viability is on record?
Its relative viability is 1.08.

With NCI-H1755 as the cell line, how does the relative viability read?
The relative viability was 0.909.

Which relative viability does the source give for NCI-H2023 here?
The relative viability was 0.92.

Which relative viability does the source give for HCC-15 here?
Its relative viability is 0.693.

For NCI-H1793, which relative viability is on record?
Its relative viability is 0.34.

With PC-14 as the cell line, how does the relative viability read?
Its relative viability is 1.06.

With EKVX as the cell line, how does the relative viability read?
Its relative viability is 0.874.

LC-2-ad was tested. Which relative viability did it give?
Its relative viability is 0.405.

Which relative viability does the source give for NCI-H1944 here?
The relative viability was 1.05.

For NCI-H1975, which relative viability is on record?
The relative viability was 1.08.

Which relative viability does the source give for RERF-LC-KJ here?
The relative viability was 0.827.

With PC-3 [JPC-3] as the cell line, how does the relative viability read?
Its relative viability is 0.774.

Same assay, conditions: first compound 0.1 µM

Which relative viability does the source give for NCI-H1355 here?
The relative viability was 0.91.

How did the relative viability turn out when NCI-H3122 was run?
The relative viability was 0.525.

With NCI-H1437 as the cell line, how does the relative viability read?
Its relative viability is 0.714.

How did the relative viability turn out when NCI-H1755 was run?
Its relative viability is 0.903.

For NCI-H2023, which relative viability is on record?
Its relative viability is 0.723.

With HCC-15 as the cell line, how does the relative viability read?
Its relative viability is 0.497.

How did the relative viability turn out when NCI-H1793 was run?
Its relative viability is 0.275.

PC-14 was tested. Which relative viability did it give?
The relative viability was 0.902.

EKVX was tested. Which relative viability did it give?
The relative viability was 1.02.

How did the relative viability turn out when LC-2-ad was run?
The relative viability was 0.113.

NCI-H1944 was tested. Which relative viability did it give?
Its relative viability is 1.05.

NCI-H1975 was tested. Which relative viability did it give?
The relative viability was 0.932.

How did the relative viability turn out when RERF-LC-KJ was run?
The relative viability was 0.727.

PC-3 [JPC-3] was tested. Which relative viability did it give?
Its relative viability is 0.743.

Same assay, conditions: first compound 0.3162 µM

With NCI-H1355 as the cell line, how does the relative viability read?
Its relative viability is 0.159.

NCI-H3122 was tested. Which relative viability did it give?
Its relative viability is 0.233.

How did the relative viability turn out when NCI-H1437 was run?
The relative viability was 0.145.

For NCI-H1755, which relative viability is on record?
Its relative viability is 0.152.

How did the relative viability turn out when NCI-H2023 was run?
The relative viability was 0.0972.

HCC-15 was tested. Which relative viability did it give?
The relative viability was 0.202.

For NCI-H1793, which relative viability is on record?
Its relative viability is 0.218.

With PC-14 as the cell line, how does the relative viability read?
Its relative viability is 0.0528.

With EKVX as the cell line, how does the relative viability read?
The relative viability was 0.15.

How did the relative viability turn out when LC-2-ad was run?
The relative viability was 0.108.

How did the relative viability turn out when NCI-H1944 was run?
Its relative viability is 0.377.

For NCI-H1975, which relative viability is on record?
The relative viability was 0.182.

With RERF-LC-KJ as the cell line, how does the relative viability read?
The relative viability was 0.186.

With PC-3 [JPC-3] as the cell line, how does the relative viability read?
Its relative viability is 0.319.

Same assay, conditions: first compound 1 µM

Which relative viability does the source give for NCI-H1355 here?
Its relative viability is 0.186.

Which relative viability does the source give for NCI-H3122 here?
The relative viability was 0.241.

How did the relative viability turn out when NCI-H1437 was run?
Its relative viability is 0.142.

For NCI-H1755, which relative viability is on record?
The relative viability was 0.127.

With NCI-H2023 as the cell line, how does the relative viability read?
Its relative viability is 0.0716.

For HCC-15, which relative viability is on record?
The relative viability was 0.101.

Which relative viability does the source give for NCI-H1793 here?
The relative viability was 0.159.

Which relative viability does the source give for PC-14 here?
Its relative viability is 0.0559.

How did the relative viability turn out when EKVX was run?
The relative viability was 0.114.

Which relative viability does the source give for LC-2-ad here?
The relative viability was 0.103.

Which relative viability does the source give for NCI-H1944 here?
Its relative viability is 0.157.

Which relative viability does the source give for NCI-H1975 here?
Its relative viability is 0.17.

How did the relative viability turn out when RERF-LC-KJ was run?
The relative viability was 0.263.

How did the relative viability turn out when PC-3 [JPC-3] was run?
The relative viability was 0.212.

Compound: CC[C@@H]1C(=O)N(C)c2cnc(Nc3ccc(C(=O)NC4CCN(C)CC4)cc3OC)nc2N1C1CCCC1 [BI-2536] + COc1cc2c(Oc3ccc(NC(=O)C4(C(=O)Nc5ccc(F)cc5)CC4)cc3F)ccnc2cc1OCCCN1CCOCC1 [Foretinib] (partner 0.25 µM)
Test: as above
Conditions: first compound 0.01 µM
Method in brief: as §1

Which relative viability does the source give for NCI-H1355 here?
Its relative viability is 0.871.

Which relative viability does the source give for NCI-H3122 here?
Its relative viability is 0.969.

Which relative viability does the source give for NCI-H1437 here?
The relative viability was 1.25.

For NCI-H1755, which relative viability is on record?
The relative viability was 0.949.

With NCI-H2023 as the cell line, how does the relative viability read?
Its relative viability is 0.864.

Which relative viability does the source give for HCC-15 here?
Its relative viability is 0.854.

Which relative viability does the source give for NCI-H1793 here?
The relative viability was 0.585.

For PC-14, which relative viability is on record?
Its relative viability is 0.961.

How did the relative viability turn out when EKVX was run?
The relative viability was 0.702.

For LC-2-ad, which relative viability is on record?
The relative viability was 0.909.

How did the relative viability turn out when NCI-H1944 was run?
Its relative viability is 0.822.

For NCI-H1975, which relative viability is on record?
Its relative viability is 0.942.

Which relative viability does the source give for RERF-LC-KJ here?
Its relative viability is 1.

How did the relative viability turn out when PC-3 [JPC-3] was run?
The relative viability was 1.06.

Same assay, conditions: first compound 0.03162 µM

How did the relative viability turn out when NCI-H1355 was run?
Its relative viability is 0.968.

With NCI-H3122 as the cell line, how does the relative viability read?
The relative viability was 0.916.

How did the relative viability turn out when NCI-H1437 was run?
Its relative viability is 1.18.

Which relative viability does the source give for NCI-H1755 here?
Its relative viability is 0.819.

With NCI-H2023 as the cell line, how does the relative viability read?
Its relative viability is 0.914.

Which relative viability does the source give for HCC-15 here?
The relative viability was 0.648.

NCI-H1793 was tested. Which relative viability did it give?
Its relative viability is 0.364.

Which relative viability does the source give for PC-14 here?
The relative viability was 0.93.

With EKVX as the cell line, how does the relative viability read?
Its relative viability is 0.833.

How did the relative viability turn out when LC-2-ad was run?
Its relative viability is 0.386.

For NCI-H1944, which relative viability is on record?
The relative viability was 1.09.

How did the relative viability turn out when NCI-H1975 was run?
Its relative viability is 0.85.

With RERF-LC-KJ as the cell line, how does the relative viability read?
The relative viability was 0.88.

With PC-3 [JPC-3] as the cell line, how does the relative viability read?
The relative viability was 0.914.

Same assay, conditions: first compound 0.1 µM

Which relative viability does the source give for NCI-H1355 here?
Its relative viability is 0.601.

For NCI-H3122, which relative viability is on record?
Its relative viability is 0.488.

For NCI-H1437, which relative viability is on record?
Its relative viability is 0.852.

For NCI-H1755, which relative viability is on record?
The relative viability was 0.618.

NCI-H2023 was tested. Which relative viability did it give?
The relative viability was 0.671.

HCC-15 was tested. Which relative viability did it give?
The relative viability was 0.361.

How did the relative viability turn out when NCI-H1793 was run?
Its relative viability is 0.202.

PC-14 was tested. Which relative viability did it give?
The relative viability was 0.895.

EKVX was tested. Which relative viability did it give?
Its relative viability is 0.755.

How did the relative viability turn out when LC-2-ad was run?
Its relative viability is 0.289.

How did the relative viability turn out when NCI-H1944 was run?
The relative viability was 0.907.

How did the relative viability turn out when NCI-H1975 was run?
Its relative viability is 0.508.

Which relative viability does the source give for RERF-LC-KJ here?
Its relative viability is 0.897.

For PC-3 [JPC-3], which relative viability is on record?
Its relative viability is 0.753.

Same assay, conditions: first compound 0.3162 µM

With NCI-H1355 as the cell line, how does the relative viability read?
Its relative viability is 0.149.

Which relative viability does the source give for NCI-H3122 here?
Its relative viability is 0.122.

With NCI-H1437 as the cell line, how does the relative viability read?
The relative viability was 0.198.

For NCI-H1755, which relative viability is on record?
Its relative viability is 0.27.

For NCI-H2023, which relative viability is on record?
The relative viability was 0.0855.

Which relative viability does the source give for HCC-15 here?
The relative viability was 0.137.

With NCI-H1793 as the cell line, how does the relative viability read?
Its relative viability is 0.164.

PC-14 was tested. Which relative viability did it give?
The relative viability was 0.0827.

Which relative viability does the source give for EKVX here?
The relative viability was 0.237.

With LC-2-ad as the cell line, how does the relative viability read?
The relative viability was 0.285.

How did the relative viability turn out when NCI-H1944 was run?
The relative viability was 0.134.

Which relative viability does the source give for NCI-H1975 here?
The relative viability was 0.148.

How did the relative viability turn out when RERF-LC-KJ was run?
The relative viability was 0.189.

Which relative viability does the source give for PC-3 [JPC-3] here?
Its relative viability is 0.17.

Same assay, conditions: first compound 1 µM

NCI-H1355 was tested. Which relative viability did it give?
The relative viability was 0.18.

For NCI-H3122, which relative viability is on record?
The relative viability was 0.118.

For NCI-H1437, which relative viability is on record?
The relative viability was 0.179.

How did the relative viability turn out when NCI-H1755 was run?
The relative viability was 0.292.

NCI-H2023 was tested. Which relative viability did it give?
Its relative viability is 0.0903.

For HCC-15, which relative viability is on record?
Its relative viability is 0.143.

For NCI-H1793, which relative viability is on record?
Its relative viability is 0.173.

PC-14 was tested. Which relative viability did it give?
Its relative viability is 0.0753.

With EKVX as the cell line, how does the relative viability read?
The relative viability was 1.08.

How did the relative viability turn out when LC-2-ad was run?
The relative viability was 0.322.

Which relative viability does the source give for NCI-H1944 here?
Its relative viability is 0.178.

For NCI-H1975, which relative viability is on record?
Its relative viability is 0.114.

How did the relative viability turn out when RERF-LC-KJ was run?
Its relative viability is 0.213.

How did the relative viability turn out when PC-3 [JPC-3] was run?
Its relative viability is 0.187.
